Results from patent publication US6391595B1, “Transferase and amylase, process for producing the enzymes, use thereof, and gene coding for the same” (Kirin Beer Kabushiki Kaisha, priority 1994, dated 2002).

Assays:
Type in all cases: biochemical
[1] = tested on: debranching enzyme derived from the Sulfolobus solfataricus strain KM1; assay: Influence of activators and inhibitors on debranching enzyme activity
[2] = tested on: transferase derived from the Sulfolobus solfataricus strain KM1; assay: Influence of activators and inhibitors on glucosyltrehalose-producing activity
[3] = target: T1, amylase derived from the Sulfolobus solfataricus strain KM1 (Saccharolobus solfataricus, UniProt Q55088); assay: biochemical
T1 construct: endogenous in cells; host or cells: Sulfolobus solfataricus strain KM1 cells
T1 sequence (Q55088 1-559): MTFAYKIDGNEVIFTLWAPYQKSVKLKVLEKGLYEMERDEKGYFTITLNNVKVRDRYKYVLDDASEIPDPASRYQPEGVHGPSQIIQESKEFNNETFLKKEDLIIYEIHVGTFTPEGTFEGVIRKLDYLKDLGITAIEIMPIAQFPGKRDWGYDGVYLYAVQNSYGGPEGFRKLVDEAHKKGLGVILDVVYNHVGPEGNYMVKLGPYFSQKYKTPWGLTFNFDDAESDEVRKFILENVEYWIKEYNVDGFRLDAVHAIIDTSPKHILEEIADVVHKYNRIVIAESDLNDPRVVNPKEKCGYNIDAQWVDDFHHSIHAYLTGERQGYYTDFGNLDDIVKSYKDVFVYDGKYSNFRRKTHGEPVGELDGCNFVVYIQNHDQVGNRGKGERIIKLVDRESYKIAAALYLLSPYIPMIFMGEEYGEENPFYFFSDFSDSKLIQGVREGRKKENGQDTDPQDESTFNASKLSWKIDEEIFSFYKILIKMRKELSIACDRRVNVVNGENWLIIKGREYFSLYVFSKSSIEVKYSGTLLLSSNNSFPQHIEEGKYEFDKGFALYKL

[4] = tested on: transferase derived from the Sulfolobus solfataricus strain DSM 5833; assay: Inhibitor of transferase (glucosyltrehalose-producing activity); settings: 5 mM CuSO4
Method: (§1) The influence of each substance listed in Table 8, such as an activating effect or inhibitory effect, was evaluated using similar activity-measuring method to that in Example I-1. Specifically, the listed substances were individually added together with the substrate to the same reaction system as that in the method for measuring glucosyltrehalose-producing activity employed in Example I-1.
(§2) Incidentally, each of the purified enzymes which were obtained in Examples I-3-I-5 and derived from the Sulfolobus solfataricus strain DSM 5833, the Sulfolobus acidocaldarius strain ATCC 33909, and the Acidianus brierleyi strain DSM 1651, respectively, was examined for enzymatic characteristics by using similar manner.

[5] = tested on: transferase derived from the Sulfolobus acidocaldarius strain ATCC 33909; assay: as above; settings: 5 mM CuSO4
Method: as §1, §2

[6] = tested on: transferase derived from the Acidianus brierleyi strain DSM 1651; assay: as above; settings: 5 mM CuSO4
Method: as §1, §2

[7] = tested on: amylase derived from the Sulfolobus acidocaldarius strain ATCC 33909; assay: Inhibitor of amylase (maltotriosyltrehalose-hydrolyzing activity); settings: 5 mM CuSO4
Method: (§3) The influence of each substance listed in Table 15, such as an activating effect or inhibitory effect, was evaluated using similar activity-measuring method to that in Example II-1. Specifically, the listed substances were individually added together with the substrate to the same reaction system as that in the method for measuring maltotriosyltrehalose-hydrolyzing activity employed in Example II-1. […] As to the inhibitory effect by SDS, however, the enzymatic activity revived after SDS was removed by dialysis, ultrafiltration or the like.
(§4) Additionally, each of the purified enzymes obtained in Examples II-3 and II-4, i.e. derived from the Sulfolobus solfataricus strain DSM 5833 and the Sulfolobus acidocaldarius strain ATCC 33909, respectively, was also examined for the enzymatic characteristics in a similar manner.

[8] = tested on: amylase derived from the Sulfolobus solfataricus strain DSM 5833; assay: as above; settings: 5 mM CuSO4
Method: as §3, §4

O=S(=O)([O-])[O-].[Cu+2] [CuSO4]
Residual activity ([1]; Concentration 5 mM): 0.0% | Activating or inhibitory effect ([1]; added with the substrate): inhibitory effects | Inhibitor, inhibited ([2]; 5 mM CuSO4): 100% inhibited | Residual activity ([2]; Concentration 5 mM): 0.0% | Activating or inhibitory effect ([2]; added with the substrate): inhibitory effects | Inhibitor, inhibited ([3]; 5 mM CuSO4): 100% inhibited | Residual activity ([3]; Concentration 5 mM): 0% | Activating or inhibitory effect ([3]; added with the substrate): inhibitory effects | Inhibitor, inhibited [4]: 100% inhibited | Inhibitor, inhibited [5]: 100% inhibited | Inhibitor, inhibited [6]: 100% inhibited | Inhibitor, inhibited [7]: 100% inhibited | Inhibitor, inhibited [8]: 100% inhibited
